Laboratory results: patent publication US11518788B2, “Methods and compositions for treating and preventing viral infection” (priority 2020, dated 2022)

Legend:
[1] = tested on: SARS-CoV-2 pseudovirus; assay type: cell-based
[2] = tested on: SARS-CoV pseudovirus; assay type: cell-based

| Substance | inhibition of SARS-CoV-2 pseudovirus entry [1] | percent infection of SARS-CoV-2 pseudovirus particles [1] | inhibition of SARS-CoV pseudovirus entry [2] | efficiency of inhibition of SARS-CoV-2 compared with SARS-CoV and MERS CoV [1] |
| --- | --- | --- | --- | --- |
| ACE2-Fc | inhibited | reduced percent infection | inhibited | – |
| heparin [reference compound] | – | – | – | more efficiently than it does for SARS-CoV and MERS CoV |
